This note sets out measurements from patent US10934274B2, “Quinoline derivatives as TAM RTK inhibitors” (Qurient Co., Ltd., priority 2015, dated 2021).

pIC50, pKd: −log10 of the molar value.

In assay [1] the test system is Axl phosphorylation in transiently transfected HEK293T cells. As to the kind of experiment: Cellular Axl phosphorylation assay. The format is cell-based. The note with it: Homo sapiens, HEK-293T; HEK293T cells transfected with Axl, 1 hour compound treatment, Phospho-Axl vs Total-Axl. Summed up: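 HEK293T cells transiently transfected with Axl (empty pcDNA_DEST_40 vector as minimum control) were treated with compound in DMSO for 1 h, then lysed. Total and phospho-Axl in lysates were measured by Mesoscale electrochemiluminescence immunoassay. IC50 was taken relative to the DMSO vehicle and empty-vector controls.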

The target in assay [2] is T1, Mer (Homo sapiens, UniProt Q12866).
T1 construct: purchased Life Technologies
T1 sequence (Q12866 21-999): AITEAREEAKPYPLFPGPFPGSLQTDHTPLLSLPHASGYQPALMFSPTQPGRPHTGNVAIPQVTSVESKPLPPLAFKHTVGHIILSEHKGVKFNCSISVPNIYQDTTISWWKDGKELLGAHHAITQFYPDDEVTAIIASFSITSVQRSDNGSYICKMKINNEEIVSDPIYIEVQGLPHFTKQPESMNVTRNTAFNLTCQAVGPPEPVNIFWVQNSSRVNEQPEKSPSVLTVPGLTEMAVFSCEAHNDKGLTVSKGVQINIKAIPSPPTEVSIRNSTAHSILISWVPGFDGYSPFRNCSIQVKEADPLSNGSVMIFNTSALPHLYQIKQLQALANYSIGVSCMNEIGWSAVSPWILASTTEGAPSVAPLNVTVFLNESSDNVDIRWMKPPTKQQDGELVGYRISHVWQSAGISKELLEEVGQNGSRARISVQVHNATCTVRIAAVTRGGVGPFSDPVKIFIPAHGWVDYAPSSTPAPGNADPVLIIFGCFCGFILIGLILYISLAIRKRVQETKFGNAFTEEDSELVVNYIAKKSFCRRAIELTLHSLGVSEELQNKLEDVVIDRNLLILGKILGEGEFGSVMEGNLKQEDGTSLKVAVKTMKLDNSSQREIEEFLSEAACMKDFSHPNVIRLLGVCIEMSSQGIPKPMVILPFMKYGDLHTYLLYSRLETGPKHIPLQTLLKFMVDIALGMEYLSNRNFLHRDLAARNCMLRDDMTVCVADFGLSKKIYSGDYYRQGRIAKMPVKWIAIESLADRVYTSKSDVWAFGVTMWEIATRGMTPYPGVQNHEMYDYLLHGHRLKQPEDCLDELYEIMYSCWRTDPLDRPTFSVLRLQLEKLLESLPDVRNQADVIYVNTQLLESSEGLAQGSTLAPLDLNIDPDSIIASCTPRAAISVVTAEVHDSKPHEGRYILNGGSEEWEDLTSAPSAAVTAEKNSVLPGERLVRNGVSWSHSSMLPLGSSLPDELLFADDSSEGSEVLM
As to the kind of experiment: LanthaScreen Eu kinase binding assay, Mer. The note with it: Tracer 236.

In assay [3] the target is T2, Met (Homo sapiens, UniProt P08581).
T2 construct: purchased Life Technologies
Description: LanthaScreen Eu kinase binding assay, Met. The note with it: Tracer 236, read-out: cMet kinase binding activity (Kd). Background: In TR-FRET formats the signal depends on donor and acceptor labels being close together.

T2 sequence (P08581 25-1390): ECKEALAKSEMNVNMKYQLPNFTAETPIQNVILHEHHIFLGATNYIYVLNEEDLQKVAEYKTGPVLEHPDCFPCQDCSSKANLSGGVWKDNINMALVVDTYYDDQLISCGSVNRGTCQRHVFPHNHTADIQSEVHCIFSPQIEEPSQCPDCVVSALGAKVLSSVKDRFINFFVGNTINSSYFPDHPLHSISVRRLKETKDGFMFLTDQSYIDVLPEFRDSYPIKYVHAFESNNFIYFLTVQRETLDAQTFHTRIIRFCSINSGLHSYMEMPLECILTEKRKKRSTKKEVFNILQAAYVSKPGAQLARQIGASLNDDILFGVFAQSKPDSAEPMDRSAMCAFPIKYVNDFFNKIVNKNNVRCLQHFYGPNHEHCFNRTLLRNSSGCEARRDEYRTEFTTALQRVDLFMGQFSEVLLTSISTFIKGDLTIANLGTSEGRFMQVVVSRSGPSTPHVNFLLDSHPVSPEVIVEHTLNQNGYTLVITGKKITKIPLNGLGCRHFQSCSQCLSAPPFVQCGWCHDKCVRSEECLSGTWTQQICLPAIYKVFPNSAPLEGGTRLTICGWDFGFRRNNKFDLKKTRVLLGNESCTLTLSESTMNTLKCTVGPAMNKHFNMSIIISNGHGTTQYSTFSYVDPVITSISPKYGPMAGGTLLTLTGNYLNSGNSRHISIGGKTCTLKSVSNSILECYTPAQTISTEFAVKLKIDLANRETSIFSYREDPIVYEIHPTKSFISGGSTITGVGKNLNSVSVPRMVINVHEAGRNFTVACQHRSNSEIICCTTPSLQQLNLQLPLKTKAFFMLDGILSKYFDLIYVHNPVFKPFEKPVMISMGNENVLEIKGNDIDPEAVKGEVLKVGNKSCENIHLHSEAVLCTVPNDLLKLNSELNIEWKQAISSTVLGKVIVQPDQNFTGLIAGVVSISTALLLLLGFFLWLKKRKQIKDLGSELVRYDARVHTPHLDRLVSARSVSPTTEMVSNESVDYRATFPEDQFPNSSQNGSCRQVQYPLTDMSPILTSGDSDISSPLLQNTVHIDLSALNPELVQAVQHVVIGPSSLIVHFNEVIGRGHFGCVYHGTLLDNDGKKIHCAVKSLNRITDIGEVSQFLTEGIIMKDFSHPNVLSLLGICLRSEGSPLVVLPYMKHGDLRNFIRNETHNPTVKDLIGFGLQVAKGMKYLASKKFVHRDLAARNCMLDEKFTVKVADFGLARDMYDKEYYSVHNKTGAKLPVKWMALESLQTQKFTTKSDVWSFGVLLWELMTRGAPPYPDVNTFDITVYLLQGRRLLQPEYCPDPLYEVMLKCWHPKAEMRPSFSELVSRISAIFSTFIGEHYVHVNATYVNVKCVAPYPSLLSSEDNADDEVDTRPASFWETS

In the case of `COc1cc2nccc(Oc3ccc(NC(=O)c4nn(-c5ccc(F)cc5C5CCCC5)cc4OCC4CC4)nc3)c2cc1OC` [Compound 270], the pIC50 (usually −log10 of the IC50, conventionally taken in molar units) in assay [1] was above 7.00. The pKd in assay [2] and in assay [3] was 6.00 to 7.00 throughout.
`COc1cc2nccc(Oc3ccc(NC(=O)c4nn(-c5cnc(N)cn5)cc4OCC(F)(F)F)nc3)c2cc1OC` [Compound 248]: the pIC50 in assay [1] was above 7.00. Moreover, the pKd in assay [2] and in assay [3] was above 7.00 each time.
`COc1cc2nccc(Oc3ccc(NC(=O)c4nn(-c5cnc(N)cn5)cc4OCC4CC4)nc3)c2cc1OC` [Compound 249] had a pIC50 in assay [1] above 7.00. Also, the negative-log Kd (pKd) in assay [2] and in assay [3] was above 7.00 each time.
In the case of `COc1cc2nccc(Oc3ccc(NC(=O)c4nn(-c5cccnc5)cc4OCC4CC4)nc3)c2cc1OC(F)(F)F` [Compound 239], the pIC50 in assay [1] is above 7.00. Further, the pKd in assay [2] and in assay [3] was 6.00 to 7.00 throughout.
As to `CCOc1cn(-c2cnccn2)nc1C(=O)Nc1ccc(Oc2ccnc3cc(OC)c(OC)cc23)cn1` [Compound 36], in assay [1], the negative logarithm of the IC50 (pIC50) is above 7.00. Moreover, the pKd in assay [2] and in assay [3] was above 7.00 each time.
In turn, `COc1cc2nccc(Oc3ccc(NC(=O)c4nn(-c5cncnc5C5CC5)cc4OCC(F)(F)F)nc3)c2cc1OC` [Compound 261] gave a pIC50 in assay [1] above 7.00. For the same compound, the negative-log Kd (pKd) in assay [2] and in assay [3] was above 7.00 throughout.
In assay [1], `CCOc1cn(-c2cccs2)nc1C(=O)Nc1ccc(Oc2ccnc3cc(OC)c(OC)cc23)cn1` [Compound 17] gave a pIC50 above 7.00. Besides, the pKd in assay [2] and in assay [3] was above 7.00 in each case.
As for `COc1cc2nccc(Oc3ccc(NC(=O)c4nn(-c5cnc(N)nc5)cc4OC(C)C)nc3)c2cc1OC` [Compound 260], in assay [1], the negative logarithm of the IC50 (pIC50) is above 7.00. Also, the pKd in assay [2] and in assay [3] was above 7.00 each time.
As for `CCOc1cn(-c2ccncc2C)nc1C(=O)Nc1ccc(Oc2ccnc3cc(OC)c(OC)cc23)cn1` [Compound 34], the pIC50 in assay [1] was above 7.00. Also, the pKd in assay [2] and in assay [3] was above 7.00 throughout.
